Here are results for eight compounds from ChEMBL document CHEMBL1909046, “DrugMatrix in vitro pharmacology data”.

Assay [1] can be described thus: DRUGMATRIX: Glutamate, NMDA, Phencyclidine radioligand binding (ligand: [3H] TCP). Conditions: Not Active = under 50% inhibition at 10 µM. The format is cell membranes, Rattus norvegicus, Wistar, Cerebral cortex, Membrane.
Assay [2] in a line: DRUGMATRIX: Glutamate, Kainate radioligand binding (ligand: [3H] Kainic acid). In kind it is cell membranes, Rattus norvegicus, Wistar, Brain, Membrane. Conditions: Not Active = under 50% inhibition at 10 µM.
The next assay deals with T1, B2 bradykinin receptor (Homo sapiens, UniProt P30411).
T1 sequence (P30411 whole entry): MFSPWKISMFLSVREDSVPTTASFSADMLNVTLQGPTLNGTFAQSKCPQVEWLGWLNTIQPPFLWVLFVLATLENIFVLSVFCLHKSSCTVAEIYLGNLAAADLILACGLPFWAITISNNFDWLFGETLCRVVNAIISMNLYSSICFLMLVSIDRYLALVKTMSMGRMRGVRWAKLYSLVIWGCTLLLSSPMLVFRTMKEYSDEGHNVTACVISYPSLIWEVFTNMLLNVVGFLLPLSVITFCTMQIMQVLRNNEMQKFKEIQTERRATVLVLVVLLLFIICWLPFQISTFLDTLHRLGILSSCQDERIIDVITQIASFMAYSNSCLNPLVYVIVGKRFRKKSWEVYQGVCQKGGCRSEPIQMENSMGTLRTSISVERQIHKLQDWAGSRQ
In kind it is cell membranes, Membrane. Conditions: chem-1.

Assay [3] in a line: DRUGMATRIX: Imidazoline I2, Central radioligand binding (ligand: [3H] Idazoxan). In kind it is cell membranes, Rattus norvegicus, Wistar, Cerebral cortex, Membrane. Conditions: Not Active = under 50% inhibition at 10 µM.
Assay [4] in a line: DRUGMATRIX: beta-Lactamase enzyme inhibition (substrate: Nitrocefin). Conditions: Not Active = under 50% inhibition at 10 µM. Also noted: species or system Bacillus cereus.
In assay [5] the target is T2, Neuropeptide Y receptor type 1 (Homo sapiens, UniProt P25929). Also: in other assays of this panel Not Active means under 50% inhibition at 10 µM.
T2 sequence (P25929 whole entry): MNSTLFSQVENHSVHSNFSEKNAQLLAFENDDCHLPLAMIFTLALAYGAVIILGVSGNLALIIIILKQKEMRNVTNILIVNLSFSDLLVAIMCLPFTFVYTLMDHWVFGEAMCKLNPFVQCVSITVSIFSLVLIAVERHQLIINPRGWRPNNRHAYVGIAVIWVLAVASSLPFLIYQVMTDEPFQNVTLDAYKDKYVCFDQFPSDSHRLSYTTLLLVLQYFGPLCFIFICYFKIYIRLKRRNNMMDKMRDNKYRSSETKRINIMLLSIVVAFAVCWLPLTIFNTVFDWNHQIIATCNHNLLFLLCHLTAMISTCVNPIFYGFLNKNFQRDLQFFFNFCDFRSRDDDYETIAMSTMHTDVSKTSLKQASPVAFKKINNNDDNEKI
The format is cell membranes, Membrane. Conditions: sk-n-mc.

Assay [6] concerns the target T3, Neuropeptide Y receptor type 2 (Homo sapiens, UniProt P49146). Also: in other assays of this panel Not Active means under 50% inhibition at 10 µM.
T3 sequence (P49146 whole entry): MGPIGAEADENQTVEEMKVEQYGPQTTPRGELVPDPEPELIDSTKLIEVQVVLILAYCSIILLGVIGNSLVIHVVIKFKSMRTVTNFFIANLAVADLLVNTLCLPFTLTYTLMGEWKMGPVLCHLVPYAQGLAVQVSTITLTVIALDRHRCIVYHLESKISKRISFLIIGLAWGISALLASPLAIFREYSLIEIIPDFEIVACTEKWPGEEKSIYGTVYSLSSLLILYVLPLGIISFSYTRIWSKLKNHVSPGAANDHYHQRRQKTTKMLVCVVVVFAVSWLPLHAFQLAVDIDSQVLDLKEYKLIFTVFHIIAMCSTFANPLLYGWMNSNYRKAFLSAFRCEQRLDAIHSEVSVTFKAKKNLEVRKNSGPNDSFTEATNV
In kind it is cell membranes, Membrane. Conditions: kan-ts.

Assay [7] has as its target T4, Angiotensin-converting enzyme (Oryctolagus cuniculus, UniProt P12822).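 Also: enzymatic inhibition of angiotensin-converting enzyme measured with FAPGG as the substrate; in other assays of this panel Not Active means under 50% inhibition at 10 µM.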
T4 sequence (P12822 whole entry): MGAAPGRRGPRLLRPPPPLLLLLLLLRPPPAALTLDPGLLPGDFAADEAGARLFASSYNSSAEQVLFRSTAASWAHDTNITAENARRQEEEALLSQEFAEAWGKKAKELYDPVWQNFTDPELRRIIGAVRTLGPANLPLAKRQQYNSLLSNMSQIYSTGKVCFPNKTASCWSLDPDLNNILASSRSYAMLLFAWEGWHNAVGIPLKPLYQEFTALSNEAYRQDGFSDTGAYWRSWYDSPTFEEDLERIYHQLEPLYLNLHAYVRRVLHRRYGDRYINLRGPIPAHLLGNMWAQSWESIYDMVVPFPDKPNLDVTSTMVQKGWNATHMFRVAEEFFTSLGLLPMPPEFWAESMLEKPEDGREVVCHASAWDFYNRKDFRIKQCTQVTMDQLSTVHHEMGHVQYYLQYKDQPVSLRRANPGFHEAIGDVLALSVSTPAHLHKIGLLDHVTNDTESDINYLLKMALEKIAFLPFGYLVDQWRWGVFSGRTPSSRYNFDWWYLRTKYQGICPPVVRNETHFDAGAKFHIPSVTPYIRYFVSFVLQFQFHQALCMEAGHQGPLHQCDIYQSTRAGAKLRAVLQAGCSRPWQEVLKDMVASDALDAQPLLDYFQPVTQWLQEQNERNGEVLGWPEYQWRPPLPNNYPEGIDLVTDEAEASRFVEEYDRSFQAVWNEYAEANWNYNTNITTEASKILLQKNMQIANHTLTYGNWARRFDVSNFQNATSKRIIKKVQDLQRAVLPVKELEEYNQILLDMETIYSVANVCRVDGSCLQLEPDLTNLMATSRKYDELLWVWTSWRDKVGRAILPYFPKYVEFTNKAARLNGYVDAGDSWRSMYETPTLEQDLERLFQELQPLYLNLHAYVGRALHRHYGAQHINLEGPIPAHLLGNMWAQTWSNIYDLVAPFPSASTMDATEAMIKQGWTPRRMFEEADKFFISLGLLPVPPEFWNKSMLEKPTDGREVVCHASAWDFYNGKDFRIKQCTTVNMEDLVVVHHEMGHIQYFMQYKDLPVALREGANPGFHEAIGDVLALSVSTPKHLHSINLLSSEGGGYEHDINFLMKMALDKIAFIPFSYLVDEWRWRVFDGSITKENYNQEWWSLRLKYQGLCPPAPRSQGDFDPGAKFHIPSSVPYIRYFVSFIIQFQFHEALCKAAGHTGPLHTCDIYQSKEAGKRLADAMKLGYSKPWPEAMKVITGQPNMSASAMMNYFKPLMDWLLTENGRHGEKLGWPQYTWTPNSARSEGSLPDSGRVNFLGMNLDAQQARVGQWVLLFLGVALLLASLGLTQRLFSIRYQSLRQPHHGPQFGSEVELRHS
Put plainly: biochemical. In kind it is tissue-based, Lung.

By IC50 is commonly meant the concentration that inhibits the measured activity by half. One may read the Ki as the equilibrium dissociation constant of an inhibitor or competing ligand from its target. For `C=CCO` [ALLYL ALCOHOL], the IC50 entry (in assay [1]; in assay [2]; on B2 bradykinin receptor; in assay [3]; in assay [4]; in assay [5]) was “Not Active” each time. Moreover, the IC50 result in assay [6] and in assay [7] was “Not Active” in each case. For the same compound, the Ki entry in assay [1], in assay [2], in assay [3] and in assay [4] was “Not Active” throughout.

Take CARBOXYMETHYLCELLULOSE: the concentration for half-maximal inhibition (IC50) result (in assay [1]; in assay [2]; against B2 bradykinin receptor; in assay [3]; in assay [4]; in assay [5]) was “Not Active” in each case. Besides, the IC50 entry in assay [6] and in assay [7] was “Not Active” each time. In addition, the Ki entry (in assay [1]; in assay [2]; on B2 bradykinin receptor; in assay [3]; in assay [4]; in assay [5]) was “Not Active” in each case. Further, the Ki result in assay [6] and in assay [7] was “Not Active” each time.

For the compound `C=CCN1CC[C@]23c4c5ccc(O)c4O[C@H]2/C(=N/N=C2\CC[C@@]4(O)[C@H]6Cc7ccc(O)c8c7[C@@]4(CCN6CC=C)[C@H]2O8)CC[C@@]3(O)[C@H]1C5` [NALOXONAZINE], the IC50 entry (in assay [1]; in assay [2]; against B2 bradykinin receptor; in assay [3]; in assay [4]; in assay [5]) was “Not Active” each time. The 50% inhibitory concentration (IC50) result in assay [6] and in assay [7] was “Not Active” each time. The Ki result in assay [1], in assay [2], in assay [3] and in assay [4] was “Not Active” in each case.

Take `Cc1ccnc2c1NC(=O)c1cccnc1N2C1CC1` [NEVIRAPINE]: the IC50 entry (in assay [1]; in assay [2]; at B2 bradykinin receptor; in assay [3]; in assay [4]; in assay [5]) was “Not Active” throughout. Moreover, the IC50 result in assay [6] and in assay [7] was “Not Active” in each case. In addition, the inhibition constant (Ki) result in assay [1], in assay [2], in assay [3] and in assay [4] was “Not Active” throughout.

Turning to `NCC(CC(=O)O)c1ccc(Cl)cc1` (stereo not given) [BACLOFEN], the IC50 entry (in assay [1]; in assay [2]; at B2 bradykinin receptor; in assay [3]; in assay [4]; in assay [5]) was “Not Active” each time. Further, the half-maximal inhibitory concentration (IC50) entry in assay [6] and in assay [7] was “Not Active” throughout. In addition, the Ki entry in assay [1], in assay [2], in assay [3] and in assay [4] was “Not Active” throughout.

Regarding `CO[C@H]1O[C@@H]2O[C@@]3(C)CC[C@H]4[C@H](C)CC[C@@H]([C@H]1C)[C@@]24OO3`, the IC50 result (in assay [1]; in assay [2]; against B2 bradykinin receptor; in assay [3]; in assay [4]; in assay [5]) was “Not Active” in each case. The IC50 result in assay [6] and in assay [7] was “Not Active” in each case. Also, the Ki result in assay [1], in assay [2], in assay [3] and in assay [4] was “Not Active” throughout.

`CC(CN1c2ccccc2Sc2ccccc21)N(C)C` (stereo not given) [PROMETHAZINE]: the IC50 result is “Not Active” in assay [1]; “Not Active” in assay [2]; “Not Active” against B2 bradykinin receptor; 1.99 µM in assay [3] (read-out: IC50); “Not Active” in assay [4]; “Not Active” in assay [5]. In addition, the IC50 result in assay [6] and in assay [7] was “Not Active” throughout. The Ki entry is “Not Active” in assay [1], “Not Active” in assay [2], 1.33 µM in assay [3] (read-out: Ki) and “Not Active” in assay [4].

`O=C(O)CNCP(=O)(O)O` [GLYPHOSATE]: the IC50 result (in assay [1]; in assay [2]; at B2 bradykinin receptor; in assay [3]; in assay [4]; in assay [5]) was “Not Active” in each case. Besides, the IC50 result in assay [6] and in assay [7] was “Not Active” each time. Further, the Ki result in assay [1], in assay [2], in assay [3] and in assay [4] was “Not Active” each time.
